Measured values taken from ChEMBL document CHEMBL1255557, “Heterobiaryl and heterobiaryl ether derived M5 positive allosteric modulators” (Bioorg Med Chem Lett, 2010).
The source made the active and inactive calls. The calls are words filed in the database; no cut-off is given here.

How the values were obtained:
[1] = target: T1, Muscarinic acetylcholine receptor M4 (Homo sapiens, UniProt P08173); test: Positive allosteric modulation of muscarinic M4 receptor expressed in CHO cells co-expressing Gqi5 assessed as effect on acetylcholine-induced intracellular calcium mobilization after 1 hr by FLIPR assay; format: functional, cell-based
T1 sequence (P08173 whole entry): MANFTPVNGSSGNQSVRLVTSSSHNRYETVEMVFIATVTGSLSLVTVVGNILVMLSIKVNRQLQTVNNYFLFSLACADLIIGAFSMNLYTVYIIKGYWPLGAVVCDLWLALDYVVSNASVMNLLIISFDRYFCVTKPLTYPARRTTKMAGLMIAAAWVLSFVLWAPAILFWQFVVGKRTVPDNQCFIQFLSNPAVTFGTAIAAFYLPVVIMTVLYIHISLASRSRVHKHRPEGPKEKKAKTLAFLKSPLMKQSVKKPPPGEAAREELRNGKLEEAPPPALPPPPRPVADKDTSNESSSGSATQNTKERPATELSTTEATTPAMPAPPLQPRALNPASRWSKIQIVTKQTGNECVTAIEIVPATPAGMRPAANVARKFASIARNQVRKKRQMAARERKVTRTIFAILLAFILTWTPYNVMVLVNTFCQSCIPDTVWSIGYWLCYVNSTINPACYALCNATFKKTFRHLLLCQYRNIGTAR

[2] = target: T2, Muscarinic acetylcholine receptor M5 (Homo sapiens, UniProt P08912); test: Positive allosteric modulation of muscarinic M5 receptor expressed in CHO cells assessed as effect on acetylcholine-induced intracellular calcium mobilization after 1 hr by FLIPR assay; format: functional, cell-based
T2 sequence (P08912 whole entry): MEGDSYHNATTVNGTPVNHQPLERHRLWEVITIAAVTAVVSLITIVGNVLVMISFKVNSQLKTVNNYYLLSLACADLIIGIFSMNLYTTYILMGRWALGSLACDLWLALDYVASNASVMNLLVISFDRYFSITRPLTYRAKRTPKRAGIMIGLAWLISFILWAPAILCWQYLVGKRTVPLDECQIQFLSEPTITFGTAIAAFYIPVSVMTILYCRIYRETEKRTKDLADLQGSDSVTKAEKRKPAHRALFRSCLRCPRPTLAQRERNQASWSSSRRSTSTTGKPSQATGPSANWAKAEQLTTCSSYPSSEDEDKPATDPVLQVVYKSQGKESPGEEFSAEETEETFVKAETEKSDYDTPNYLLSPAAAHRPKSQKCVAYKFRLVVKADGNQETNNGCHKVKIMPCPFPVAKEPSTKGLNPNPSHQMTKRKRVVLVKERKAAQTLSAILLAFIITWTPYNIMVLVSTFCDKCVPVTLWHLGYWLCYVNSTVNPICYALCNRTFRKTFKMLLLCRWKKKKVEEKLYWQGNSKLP

[3] = target: T3, Muscarinic acetylcholine receptor M2 (Homo sapiens, UniProt P08172); test: Positive allosteric modulation of muscarinic M2 receptor expressed in CHO cells co-expressing Gqi5 assessed as effect on acetylcholine-induced intracellular calcium mobilization after 1 hr by FLIPR assay
T3 sequence (P08172 whole entry): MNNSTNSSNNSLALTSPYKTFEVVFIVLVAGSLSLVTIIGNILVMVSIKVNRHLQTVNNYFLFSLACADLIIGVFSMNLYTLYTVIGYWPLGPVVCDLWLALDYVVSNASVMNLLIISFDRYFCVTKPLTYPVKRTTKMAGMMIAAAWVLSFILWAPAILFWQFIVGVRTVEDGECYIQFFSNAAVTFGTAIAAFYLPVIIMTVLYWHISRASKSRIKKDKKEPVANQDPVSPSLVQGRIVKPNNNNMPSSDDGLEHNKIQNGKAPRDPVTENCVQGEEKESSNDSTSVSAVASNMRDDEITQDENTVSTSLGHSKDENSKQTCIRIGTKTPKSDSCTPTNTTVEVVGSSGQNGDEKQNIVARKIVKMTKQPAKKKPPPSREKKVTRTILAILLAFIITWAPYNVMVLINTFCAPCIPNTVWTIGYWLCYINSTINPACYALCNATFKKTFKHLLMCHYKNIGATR

[4] = target: Muscarinic acetylcholine receptor M3 (Homo sapiens) (UniProt P20309); test: Positive allosteric modulation of muscarinic M3 receptor expressed in CHO cells assessed as potentiation of acetylcholine-induced intracellular calcium mobilization at 30 uM after 1 hr by FLIPR assay relative to acetylcholine; format: functional, cell-based
[5] = target: T4, Muscarinic acetylcholine receptor M5 (Homo sapiens) (UniProt P08912); test: Positive allosteric modulation of muscarinic M5 receptor expressed in CHO cells assessed as effect on acetylcholine-induced intracellular calcium mobilization after 1 hr by FLIPR assay relative to acetylcholine; format: functional, cell-based
T4 sequence (whole entry): T2 sequence (P08912 whole entry)

[6] = Partition coefficient, log P of the compound; format: physicochemical; conditions: octanol/water
[7] = target: T5, Muscarinic acetylcholine receptor M2 (Homo sapiens) (UniProt P08172); test: Positive allosteric modulation of muscarinic M2 receptor expressed in CHO cells co-expressing Gqi5 assessed as potentiation of acetylcholine-induced intracellular calcium mobilization at 30 uM after 1 hr by FLIPR assay relative to acetylcholine; format: functional, cell-based
T5 sequence (whole entry): T3 sequence (P08172 whole entry)

[8] = target: T6, Muscarinic acetylcholine receptor M1 (Homo sapiens) (UniProt P11229); test: Positive allosteric modulation of muscarinic M1 receptor expressed in CHO cells assessed as potentiation of acetylcholine-induced intracellular calcium mobilization at 30 uM after 1 hr by FLIPR assay relative to acetylcholine; format: functional, cell-based
T6 sequence (whole entry): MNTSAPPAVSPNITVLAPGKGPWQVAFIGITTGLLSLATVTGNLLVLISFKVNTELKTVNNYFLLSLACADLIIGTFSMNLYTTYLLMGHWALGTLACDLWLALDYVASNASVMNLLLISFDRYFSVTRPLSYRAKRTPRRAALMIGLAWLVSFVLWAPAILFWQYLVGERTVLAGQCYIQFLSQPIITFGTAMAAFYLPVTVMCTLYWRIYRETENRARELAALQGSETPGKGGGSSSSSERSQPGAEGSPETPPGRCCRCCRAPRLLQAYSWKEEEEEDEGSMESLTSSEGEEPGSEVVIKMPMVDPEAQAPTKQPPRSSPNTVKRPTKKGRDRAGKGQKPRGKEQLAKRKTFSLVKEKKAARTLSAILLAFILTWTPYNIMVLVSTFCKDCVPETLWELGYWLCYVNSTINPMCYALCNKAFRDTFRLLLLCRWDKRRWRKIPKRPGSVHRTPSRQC

[9] = target: T7, Muscarinic acetylcholine receptor M4 (Homo sapiens) (UniProt P08173); test: Positive allosteric modulation of muscarinic M4 receptor expressed in CHO cells co-expressing Gqi5 assessed as potentiation of acetylcholine-induced intracellular calcium mobilization at 30 uM after 1 hr by FLIPR assay relative to acetylcholine; format: functional, cell-based
T7 sequence (whole entry): T1 sequence (P08173 whole entry)

[10] = target: T4, Muscarinic acetylcholine receptor M5 (Homo sapiens); test: Positive allosteric modulation of muscarinic M5 receptor expressed in CHO cells assessed as potentiation of acetylcholine-induced intracellular calcium mobilization at 30 uM after 1 hr by FLIPR assay relative to acetylcholine; format: functional, cell-based
[11] = target: Sodium-dependent noradrenaline transporter (Homo sapiens) (UniProt P23975); test: Inhibition of NET
[12] = target: Histamine H1 receptor (Homo sapiens) (UniProt P35367); test: Inhibition of histamine H1 receptor
Histamine H1 receptor (Homo sapiens), sequence (P35367 whole entry): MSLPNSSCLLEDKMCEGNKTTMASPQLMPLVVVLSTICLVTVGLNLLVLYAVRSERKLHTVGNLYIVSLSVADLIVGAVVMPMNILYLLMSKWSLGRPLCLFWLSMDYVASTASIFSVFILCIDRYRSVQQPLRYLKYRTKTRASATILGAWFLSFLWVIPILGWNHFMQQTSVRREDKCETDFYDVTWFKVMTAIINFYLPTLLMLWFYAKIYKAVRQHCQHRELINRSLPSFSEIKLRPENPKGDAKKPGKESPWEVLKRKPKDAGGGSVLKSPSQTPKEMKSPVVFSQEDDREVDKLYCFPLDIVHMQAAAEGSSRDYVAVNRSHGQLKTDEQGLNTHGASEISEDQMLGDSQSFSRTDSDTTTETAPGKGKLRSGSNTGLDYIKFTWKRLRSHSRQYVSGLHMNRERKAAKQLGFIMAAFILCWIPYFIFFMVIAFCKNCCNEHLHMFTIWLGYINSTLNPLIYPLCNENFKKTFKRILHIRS

Muscarinic acetylcholine receptor M3 (Homo sapiens), sequence (P20309 whole entry, looked up): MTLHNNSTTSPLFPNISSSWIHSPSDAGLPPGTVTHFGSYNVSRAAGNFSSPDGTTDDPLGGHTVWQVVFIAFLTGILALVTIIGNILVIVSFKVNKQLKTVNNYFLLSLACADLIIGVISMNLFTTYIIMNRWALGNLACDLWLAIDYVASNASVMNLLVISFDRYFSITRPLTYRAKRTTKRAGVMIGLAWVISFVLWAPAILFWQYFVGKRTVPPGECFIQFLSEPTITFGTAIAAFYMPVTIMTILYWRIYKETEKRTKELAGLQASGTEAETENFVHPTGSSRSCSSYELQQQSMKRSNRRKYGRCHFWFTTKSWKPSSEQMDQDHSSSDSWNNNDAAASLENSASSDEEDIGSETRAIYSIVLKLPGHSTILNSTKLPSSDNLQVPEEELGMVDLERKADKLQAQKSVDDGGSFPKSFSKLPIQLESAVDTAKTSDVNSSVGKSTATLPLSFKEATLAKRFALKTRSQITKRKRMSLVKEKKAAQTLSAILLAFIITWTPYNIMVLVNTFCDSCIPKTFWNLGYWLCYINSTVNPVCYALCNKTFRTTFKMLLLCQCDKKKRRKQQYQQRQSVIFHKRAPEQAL
Sodium-dependent noradrenaline transporter (Homo sapiens), sequence (P23975 whole entry): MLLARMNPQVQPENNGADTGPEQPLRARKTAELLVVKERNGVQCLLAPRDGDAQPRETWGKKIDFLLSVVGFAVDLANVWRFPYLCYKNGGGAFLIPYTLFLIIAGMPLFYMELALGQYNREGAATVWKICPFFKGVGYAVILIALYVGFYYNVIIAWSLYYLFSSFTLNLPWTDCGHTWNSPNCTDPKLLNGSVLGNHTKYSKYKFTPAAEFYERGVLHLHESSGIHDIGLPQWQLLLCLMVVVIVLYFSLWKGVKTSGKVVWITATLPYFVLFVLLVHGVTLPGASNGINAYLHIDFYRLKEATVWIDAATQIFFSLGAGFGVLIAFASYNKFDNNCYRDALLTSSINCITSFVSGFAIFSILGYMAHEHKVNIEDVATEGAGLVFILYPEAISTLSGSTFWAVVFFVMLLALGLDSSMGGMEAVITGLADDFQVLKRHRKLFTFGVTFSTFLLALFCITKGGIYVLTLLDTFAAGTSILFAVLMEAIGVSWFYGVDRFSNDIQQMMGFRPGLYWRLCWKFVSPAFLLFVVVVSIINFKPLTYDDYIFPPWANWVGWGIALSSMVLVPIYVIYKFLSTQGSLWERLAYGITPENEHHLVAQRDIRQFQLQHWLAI

EC50 [1] [µM]	EC50 [2] [µM]	EC50 [3] [µM]	Activity [4]	Emax [5] [%]	logP [6]	Activity [7]	Activity [8]	Activity [9]	fold change (FC) [10]	inhibition [11]	inhibition [12]	Compound
> 30	4.6	> 30	–	–	–	–	–	–	–	–	–	O=C1C(=O)N(Cc2ccc(Br)cc2)c2ccccc21
–	3.8	–	inactive	76	3.6	inactive	inactive	inactive	14	–	–	O=C1C(=O)N(Cc2ccc(-c3ccccc3)nc2)c2ccc(OC(F)(F)F)cc21
–	1.5	–	inactive	62	–	inactive	inactive	inactive	6	Active	Active	O=C1C(=O)N(Cc2ccc(Oc3cccc(F)n3)cc2)c2ccc(OC(F)(F)F)cc21
